Test results reported in PubChem BioAssay (NCI).
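48-hour exposure; five concentrations; linearly interpolated endpoints. GI50: concentration for 50% inhibition of growth. TGI denotes the concentration required for complete inhibition of growth.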

Columns and labels:
Assay in all cases: NCI tumour cell line growth inhibition, 48 h
[1] = test system: CCRF-CEM leukemia
[2] = test system: COLO 205 colon
[3] = test system: HCT-15 colon
[4] = test system: K-562 leukemia
[5] = test system: OVCAR-5 ovarian
[6] = test system: SNB-75 CNS
[7] = test system: SR leukemia
[8] = test system: UACC-62 melanoma

| Compound | GI50 [1] | TGI [1] | GI50 [2] | TGI [2] | GI50 [3] | TGI [3] | GI50 [4] | TGI [4] | GI50 [5] | TGI [5] | GI50 [6] | TGI [6] | GI50 [7] | TGI [7] | GI50 [8] | TGI [8] |
| --- | --- | --- | --- | --- | --- | --- | --- | --- | --- | --- | --- | --- | --- | --- | --- | --- |
| O=C(CNC(=O)c1cccc2ccccc12)Nc1ccccc1Oc1cccc(O)c1 | 4.17 µM | > 25 µM | 14.7 µM | > 25 µM | 3.14 µM | > 25 µM | 1.05 µM | > 25 µM | > 25 µM | > 25 µM | 3.3 µM | > 25 µM | 1.05 µM | > 25 µM | 1.62 µM | > 25 µM |
| C[C@]12CC[C@H]3[C@@H](CCC4=CC(=O)CC[C@@H]43)[C@@H]1CC[C@@H]2OC1(O)C(=O)c2ccccc2C1=O |  | > 100 µM |  | 53 µM |  | > 100 µM |  | > 100 µM |  | > 100 µM |  | > 100 µM |  | > 100 µM |  | 33.6 µM |
| COc1cc(C)cc2c1OC(c1ccccc1)CC2=O (stereo not given) | > 100 µM | > 100 µM | > 100 µM | > 100 µM | > 100 µM | > 100 µM | > 100 µM | > 100 µM | > 100 µM | > 100 µM | > 100 µM | > 100 µM | > 100 µM | > 100 µM | > 100 µM | > 100 µM |
| FC(F)(F)c1ccc2c(c1)N(CCCN1CCN(C3CC3)CC1)c1ccccc1S2 | 9.11 µM | 29.3 µM | 9.45 µM | 21.5 µM | 3.81 µM | 18.6 µM | 3.98 µM | 20.5 µM | 13.2 µM | 27.6 µM | 13.5 µM | 28.1 µM | 3.79 µM | 15.6 µM | 14.1 µM | 30.1 µM |
| CCOC(=O)C1CCC/C1=N\N=C(N)N (stereo not given) (tested in a mixture with another compound) |  | > 100 µM |  | > 100 µM |  | > 100 µM |  | > 100 µM |  | > 100 µM |  | > 100 µM |  | > 100 µM |  | > 100 µM |
| Nc1cc(N)c2nc(-c3ccccc3)c(Nc3ccc(F)cc3)nc2c1 |  |  | 20.3 µM | 55.9 µM | 12.7 µM | 38.1 µM | 4.97 µM | > 100 µM | 38.4 µM | > 100 µM | 20.8 µM | 41.9 µM | 5.36 µM | > 100 µM | 16.1 µM | 31.7 µM |
| CC[C@@]1(O)C(=O)NCc2c1cc1n(c2=O)Cc2cc3cc4c(cc3nc2-1)OCO4 | < 0.0128 µM | 0.148 µM | 22.7 µM | > 100 µM | 8.58 µM | > 100 µM | 0.164 µM | > 100 µM | 9.39 µM | > 88.2 µM | 0.5 µM | 3.57 µM | < 0.0176 µM | 0.2 µM | 0.243 µM | 29.4 µM |
| CCCCCCCCCCCCCCCCC(C(=O)O)C(O)(CC(=O)O)C(=O)O (stereo not given) |  | 79.2 µM |  | 35 µM |  | > 100 µM |  | > 100 µM |  | 35.1 µM |  | 43.8 µM |  | 81 µM |  | 48.9 µM |
| CCCCCCn1c(-c2ccc(C(=O)O/N=C(\N)c3ccc(OC)cc3)cc2)nc(-c2ccccc2)c1-c1ccccc1 | 0.506 µM | 2.85 µM |  |  | 1.25 µM | 2.87 µM |  |  |  |  | 1.29 µM | 3.09 µM | 0.196 µM | 0.528 µM |  |  |
